# Measurements from ChEMBL document CHEMBL5029152, “Discovery of Highly Potent and Selective IRAK1 Degraders to Probe Scaffolding Functions of IRAK1 in ABC DLBCL” (J Med Chem, 2021).
# Legend:
# [1] = target: von Hippel-Lindau disease tumor suppressor (Homo sapiens, UniProt P40337); experiment: Displacement of 5-FAM-labelled DEALA-HypYIPMDDDFQLRSF peptide from VHL (unknown origin) by fluorescence polarization assay
# [2] = target: T1, Interleukin-1 receptor-associated kinase 4 (Homo sapiens, UniProt Q9NWZ3); experiment: (§1) Inhibition of full length human N-terminal GST-fusion tagged IRAK4 expressed in baculovirus expression system using FAM-labelled peptide as substrate preincubated for 10 mins followed by substrate addition and further incubated for 1 hr in presence of ATP at Km concentration by caliper mobility shift assay
# T1 sequence (Q9NWZ3 whole entry): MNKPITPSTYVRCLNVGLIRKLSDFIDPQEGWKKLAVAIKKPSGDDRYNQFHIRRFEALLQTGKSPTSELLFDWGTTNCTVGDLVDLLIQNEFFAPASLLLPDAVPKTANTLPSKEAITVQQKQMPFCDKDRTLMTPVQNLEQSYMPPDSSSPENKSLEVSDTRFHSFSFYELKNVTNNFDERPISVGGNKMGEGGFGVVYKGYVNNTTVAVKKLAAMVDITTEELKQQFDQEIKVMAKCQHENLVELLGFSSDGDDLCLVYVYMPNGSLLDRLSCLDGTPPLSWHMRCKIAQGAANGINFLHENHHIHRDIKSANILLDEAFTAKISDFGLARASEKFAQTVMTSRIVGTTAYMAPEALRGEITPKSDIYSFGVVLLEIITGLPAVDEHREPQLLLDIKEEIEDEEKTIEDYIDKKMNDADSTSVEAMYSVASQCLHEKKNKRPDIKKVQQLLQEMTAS
# [3] = target: T2, von Hippel-Lindau disease tumor suppressor/Interleukin-1 receptor-associated kinase 1 (Homo sapiens, UniProt P51617+P40337); experiment: Protac activity at IRAK1/VHL E3 ligase in HEK293T cells assessed as induction of IRAK1 degradation at 10 uM measured after 24 hrs by Western blot analysis relative to control; assay type: cell-based
# Target sequence in this assay (P40337 whole entry, looked up, the tested form may be a part): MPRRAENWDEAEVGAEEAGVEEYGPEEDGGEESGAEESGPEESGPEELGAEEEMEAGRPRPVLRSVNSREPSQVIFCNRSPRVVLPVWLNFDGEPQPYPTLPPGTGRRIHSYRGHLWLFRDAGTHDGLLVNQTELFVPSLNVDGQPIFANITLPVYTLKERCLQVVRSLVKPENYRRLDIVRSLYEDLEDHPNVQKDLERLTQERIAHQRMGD
# Target sequence in this assay (P51617 whole entry, looked up, the tested form may be a part): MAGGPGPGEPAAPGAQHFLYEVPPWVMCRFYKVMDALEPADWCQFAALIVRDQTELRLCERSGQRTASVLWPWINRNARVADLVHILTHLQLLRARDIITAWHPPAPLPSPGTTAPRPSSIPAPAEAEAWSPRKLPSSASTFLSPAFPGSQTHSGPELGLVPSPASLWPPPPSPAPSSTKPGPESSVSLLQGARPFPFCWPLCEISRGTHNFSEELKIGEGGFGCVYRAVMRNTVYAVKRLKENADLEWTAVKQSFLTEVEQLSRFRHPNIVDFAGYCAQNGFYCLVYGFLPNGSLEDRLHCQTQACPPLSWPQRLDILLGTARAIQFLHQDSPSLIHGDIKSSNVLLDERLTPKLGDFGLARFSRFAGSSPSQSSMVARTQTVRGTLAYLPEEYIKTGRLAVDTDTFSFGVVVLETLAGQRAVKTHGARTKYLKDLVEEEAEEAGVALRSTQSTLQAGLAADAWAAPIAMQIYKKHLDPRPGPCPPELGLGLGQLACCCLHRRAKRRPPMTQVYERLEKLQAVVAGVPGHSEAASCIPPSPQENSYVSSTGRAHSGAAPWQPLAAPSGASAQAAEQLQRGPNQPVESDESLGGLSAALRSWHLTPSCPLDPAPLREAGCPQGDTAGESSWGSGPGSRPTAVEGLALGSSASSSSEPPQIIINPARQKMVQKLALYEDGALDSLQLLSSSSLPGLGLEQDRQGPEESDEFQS
# [4] = target: Interleukin-1 receptor-associated kinase 1 (Homo sapiens, UniProt P51617); experiment: as §1, with “truncated” for “full length”, “IRAK1 (194 to 712 residues)” for “IRAK4”
# Chain of Interleukin-1 receptor-associated kinase 1 (P51617 whole entry, the tested form may be a part): as the sequence (P51617 whole entry, looked up, the tested form may be a part) above
# [5] = tested on: OCI-Ly10; experiment: Cytotoxicity against human OCILY10 cells assessed as reduction in cell viability measured after 12 days by CellTiter-Glo assay; assay type: functional; details: time 12 day
# [6] = Cytotoxicity against human HBL1 cells assessed as reduction in cell viability measured after 12 days by CellTiter-Glo assay; assay type: functional; details: time 12 day
# [7] = target: T2, von Hippel-Lindau disease tumor suppressor/Interleukin-1 receptor-associated kinase 1; experiment: Protac activity at IRAK1/VHL E3 ligase in HEK293T cells assessed as induction of IRAK1 degradation measured after 24 hrs by Western blot analysis; assay type: cell-based
# Target sequence in this assay (P51617 whole entry, the tested form may be a part): as the sequence (P51617 whole entry, looked up, the tested form may be a part) above
# Target sequence in this assay (P40337 whole entry, the tested form may be a part): as the sequence (P40337 whole entry, looked up, the tested form may be a part) above
# [8] = Cytotoxicity against human HBL1 cells assessed as cell growth inhibition measured after 12 days by WST-8 assay; assay type: functional, cell-based; details: HBL1, 288 h
# [9] = target: T2, von Hippel-Lindau disease tumor suppressor/Interleukin-1 receptor-associated kinase 1; experiment: Protac activity at IRAK1/VHL E3 ligase in HEK293T cells assessed as induction of IRAK1 degradation at >=1 uM measured after 8 hrs by Western blot analysis relative to control; assay type: cell-based; details: dose microM >=1, time 8.0 hrs
# Target sequence in this assay (P40337 whole entry, looked up, the tested form may be a part): as above
# Target sequence in this assay (P51617 whole entry, looked up, the tested form may be a part): as the sequence (P51617 whole entry, looked up, the tested form may be a part) above
# [10] = target: T2, von Hippel-Lindau disease tumor suppressor/Interleukin-1 receptor-associated kinase 1; experiment: Protac activity at IRAK1/VHL E3 ligase in HEK293T cells assessed as induction of IRAK1 degradation at >=1 uM measured after 2 hrs by Western blot analysis relative to control; assay type: cell-based; details: dose microM >=1, time 2.0 hrs
# Target sequence in this assay (P40337 whole entry, looked up, the tested form may be a part): as the sequence (P40337 whole entry, looked up, the tested form may be a part) above
# Target sequence in this assay (P51617 whole entry, looked up, the tested form may be a part): as the sequence (P51617 whole entry, looked up, the tested form may be a part) above
# Chain of von Hippel-Lindau disease tumor suppressor (P40337 whole entry, the tested form may be a part): as the sequence (P40337 whole entry, looked up, the tested form may be a part) above
IC50 [1] [µM],IC50 [2] [µM],%max [3] [%],IC50 [4] [µM],DC50 [7] [µM],Activity [9] [%],Activity [10] [%],Compound,Activity [5] [µM],Activity [6] [µM],IC50 [8] [µM]
1.4,0.26,95,0.06,,,,COc1cc(N2CCC(OCC(=O)N[C@H](C(=O)N3C[C@H](O)C[C@H]3C(=O)NCc3ccc(-c4scnc4C)cc3)C(C)(C)C)CC2)ccc1NC(=O)c1cccc(-c2ccn[nH]2)n1,,,
> 10,0.32,18,0.079,> 10,,,COc1cc(N2CCC(OCC(=O)N[C@H](C(=O)N3C[C@@H](O)C[C@H]3C(=O)N[C@@H](C)c3ccc(-c4scnc4C)cc3)C(C)(C)C)CC2)ccc1NC(=O)c1cccc(-c2ccn[nH]2)n1,3,1.5,
,0.024,,0.023,,,,COc1cc(N2CCOCC2)ccc1NC(=O)c1cccc(-c2ccn[nH]2)n1,,,2.8
1.65,0.368,88,0.08,0.134,> 90,50,COc1cc(N2CCN(CCC(=O)N[C@H](C(=O)N3C[C@H](O)C[C@H]3C(=O)NCc3ccc(-c4scnc4C)cc3)C(C)(C)C)CC2)ccc1NC(=O)c1cccc(-c2cc[nH]n2)n1,,,
